The target of the test is GCN2 (Homo sapiens, UniProt Q9P2K8). Nature of the test: GCN2 enzymatic endpoint assay: phosphorylation of GFP-eIF2α measured by TR-FRET (Lanthascreen). The format is biochemical. In outline:
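Read-out is the TR-FRET ratio of acceptor signal at 520 nm to terbium donor at 495 nm, rising with antibody binding to phosphorylated GFP-eIF2α. Endpoint format: 2 μM ATP, 80 nM substrate, 90 minutes at room temperature, EDTA stop.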
A general note: TR-FRET usually uses a lanthanide donor and a delayed reading to cut background.

Setting [1] is: tested as described in Example 77, compound and/or hydrochloride, dihydrochloride or trifluoroacetic acid salt, read-out: IC 50 Activity.

Structures are written as SMILES. Read-outs that look alike come from different tables or passages of the source. Where only a bound is given, the exact number is not on record here.

Sequence of GCN2 (Q9P2K8 whole entry): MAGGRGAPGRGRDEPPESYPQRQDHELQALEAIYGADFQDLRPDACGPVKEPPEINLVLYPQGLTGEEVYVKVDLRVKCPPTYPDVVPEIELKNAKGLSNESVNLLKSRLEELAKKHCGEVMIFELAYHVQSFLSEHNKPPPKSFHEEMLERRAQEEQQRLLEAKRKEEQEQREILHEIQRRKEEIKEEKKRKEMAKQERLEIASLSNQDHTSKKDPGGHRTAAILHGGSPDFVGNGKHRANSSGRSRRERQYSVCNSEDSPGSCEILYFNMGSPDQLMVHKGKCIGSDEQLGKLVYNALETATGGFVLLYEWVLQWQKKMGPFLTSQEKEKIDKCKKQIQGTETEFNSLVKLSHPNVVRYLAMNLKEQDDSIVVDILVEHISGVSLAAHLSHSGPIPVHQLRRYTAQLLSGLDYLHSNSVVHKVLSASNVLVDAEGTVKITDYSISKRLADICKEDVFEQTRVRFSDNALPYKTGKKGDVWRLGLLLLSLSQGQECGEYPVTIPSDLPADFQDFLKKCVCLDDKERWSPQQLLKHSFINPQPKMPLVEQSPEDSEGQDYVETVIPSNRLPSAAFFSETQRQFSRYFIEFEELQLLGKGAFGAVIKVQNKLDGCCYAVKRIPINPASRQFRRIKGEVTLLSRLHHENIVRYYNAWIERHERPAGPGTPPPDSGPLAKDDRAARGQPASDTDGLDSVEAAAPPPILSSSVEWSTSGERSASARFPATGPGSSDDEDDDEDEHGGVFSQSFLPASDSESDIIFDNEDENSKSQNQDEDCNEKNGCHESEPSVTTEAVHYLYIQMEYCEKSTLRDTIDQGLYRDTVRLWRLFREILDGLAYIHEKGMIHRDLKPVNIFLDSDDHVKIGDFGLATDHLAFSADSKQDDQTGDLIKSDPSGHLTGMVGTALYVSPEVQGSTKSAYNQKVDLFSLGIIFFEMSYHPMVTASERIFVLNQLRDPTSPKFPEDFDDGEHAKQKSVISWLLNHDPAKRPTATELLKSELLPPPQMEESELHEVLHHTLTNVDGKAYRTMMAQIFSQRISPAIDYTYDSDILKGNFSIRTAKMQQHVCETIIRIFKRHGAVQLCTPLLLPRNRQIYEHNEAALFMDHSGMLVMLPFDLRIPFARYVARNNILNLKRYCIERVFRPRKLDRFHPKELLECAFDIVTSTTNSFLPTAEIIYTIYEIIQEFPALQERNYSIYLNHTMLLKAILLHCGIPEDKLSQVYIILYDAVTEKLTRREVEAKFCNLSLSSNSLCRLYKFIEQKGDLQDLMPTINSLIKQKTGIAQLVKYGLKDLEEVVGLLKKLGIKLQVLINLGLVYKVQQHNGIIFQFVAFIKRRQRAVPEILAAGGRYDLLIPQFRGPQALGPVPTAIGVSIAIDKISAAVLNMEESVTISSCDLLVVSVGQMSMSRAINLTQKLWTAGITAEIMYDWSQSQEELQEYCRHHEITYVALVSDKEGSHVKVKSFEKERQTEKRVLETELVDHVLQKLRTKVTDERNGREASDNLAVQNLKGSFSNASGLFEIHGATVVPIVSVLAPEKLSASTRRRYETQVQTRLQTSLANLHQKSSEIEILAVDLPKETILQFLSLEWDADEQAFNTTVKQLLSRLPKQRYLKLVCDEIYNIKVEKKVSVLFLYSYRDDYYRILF

Regarding `CNC(=O)[C@]1(C)CC[C@@H](Nc2ncc3c(Br)nn(-c4cnc5c(c4)OCC(=O)N5C)c3n2)C1` [(1R,3R)-3-[[3-bromo-1-(4-methyl-3-oxo-pyrido[3,2-b][1,4]oxazin-7-yl)pyrazolo [3,4-d]pyrimidin-6-yl]amino]-N,1-dimethyl-cyclopentanecarboxamide], the IC50 under setting [1] fell in the range of 25 to 200 nM.
On to `Cc1nnc(-c2ccc(-n3nc(Br)c4cnc(N[C@@H]5CCC(C)(C(=O)N6CCOCC6)C5)nc43)cc2)o1` (stereo partly drawn) [[(3R)-3-[[3-bromo-1-[4-(5-methyl-1,3,4-oxadiazol-2-yl)phenyl]pyrazolo[3,4-d]pyrimidin-6-yl]amino]-1-methyl-cyclopentyl]-morpholino-methanone], for which the IC50 under setting [1] fell in the range of 25 to 200 nM.
For `Cc1nnc(-c2ccc(-n3nc(Br)c4cnc(N[C@@H]5CC[C@@H](C(=O)N6CCN(C)C(=O)C6)C5)nc43)cc2F)o1` [4-((1R,3R)-3-((3-bromo-1-(3-fluoro-4-(5-methyl-1,3,4-oxadiazol-2-yl)phenyl)-1H-pyrazolo[3,4-d]pyrimidin-6-yl)amino)cyclo-pentane-1-carbonyl)-1-methylpiperazin-2-one], the IC50 under setting [1] is 25 to 200 nM.
On to `C[C@@]1(C(=O)N2CNC(=O)C2)CC[C@@H](Nc2ncc3c(Br)nn(-c4cc(F)c5ncccc5c4)c3n2)C1` [1-[(1R,3R)-3-[[3-bromo-1-(8-fluoro-6-quinolyl)pyrazolo[3,4-d]pyrimidin-6-yl]amino]-1-methyl-cyclopentanecarbonyl] imidazolidin-4-one], for which, under setting [1], the IC50 is less than 25 nM.
In the case of `CNC(=O)[C@@]1(CO)CC[C@@H](Nc2ncc3c(Br)nn(-c4ccc(-c5nnc(C)s5)cc4)c3n2)C1` [(1S,3R)-3-[[3-bromo-1-[4-(5-methyl-1,3,4-thiadiazol-2-yl)phenyl]pyrazolo [3,4-d]pyrimidin-6-yl]amino]-1-(hydroxymethyl)-N-methyl-cyclo-pentanecarboxamide], the IC50 under setting [1] fell in the range of 25 to 200 nM.
For `C[C@@]1(C(=O)N2CCN3C(=O)CC[C@H]3C2)CC[C@@H](Nc2ncc3c(Br)nn(-c4cc(F)c5ncccc5c4)c3n2)C1` [(8aS)-2-[(1R,3R)-3-[[3-bromo-1-(8-fluoro-6-quinolyl)pyrazolo[3,4-d]pyrimidin-6-yl]amino]-1-methyl-cyclopentanecarbonyl]-1,3,4,7,8,8a-hexahydropyrrolo[1,2-a]pyrazin-6-one], the IC50 under setting [1] lay in the range of 25 to 200 nM.
Still for that read-out and setting: under `CNC(=O)[C@]1(C)CC[C@@H](Nc2ncc3c(Br)nn(-c4cccc(Oc5ccncc5)c4)c3n2)C1` [(1R,3R)-3-[[3-bromo-1-[3-(4-pyridyloxy)phenyl]pyrazolo[3,4-d]pyrimidin-6-yl]amino]-N,1-dimethyl-cyclopentane-carboxamide] stands 25 to 200 nM.
Regarding `CNC(=O)[C@]1(C)CC[C@@H](Nc2ncc3c(Br)nn(-c4cc(Cl)cc(CN)c4)c3n2)C1` [Example 52, (1R,3R)-3-((1-(3-(aminomethyl)-5-chlorophenyl)-3-bromo-1H-pyrazolo[3,4-d]pyrimidin-6-yl)amino)-N,1-dimethylcyclopentane-1-carboxamide; 2,2,2-trifluoroacetic acid], the IC50 (GCN2 biochemical IC50, 4 nM GCN2, 2 μM ATP, 80 nM GFP-eIF2α, 90 min RT, read-out: GCN2 activity) fell in the range of 25 to 200 nM.
For `CNC(=O)[C@]1(C)CC[C@@H](Nc2ncc3c(Br)nn(-c4cc(C#N)cc(CN)c4)c3n2)C1`, the IC50 under setting [1] lay in the range of 25 to 200 nM.
Take `CNC(=O)[C@]1(C)CC[C@@H](Nc2ncc3c(Br)nn(-c4ccc5c(c4)CN(S(=O)(=O)CC(F)F)C5)c3n2)C1` [(1R,3R)-3-[[3-bromo-1-[2-(2,2-difluoroethylsulfonyl)isoindolin-5-yl]pyrazolo[3,4-d]pyrimidin-6-yl]amino]-N,1-dimethyl-cyclopentanecarboxamide]: the IC50 under setting [1] was 25 to 200 nM.
Turning to `CC1(C(=O)NCCF)CC[C@@H](Nc2ncc3c(Br)nn(-c4cc(F)c5ncccc5c4)c3n2)C1` (stereo partly drawn) [(3R)-3-[[3-bromo-1-(8-fluoro-6-quinolyl)pyrazolo[3,4-d]pyrimidin-6-yl]amino]-N-(2-fluoroethyl)-1-methyl-cyclopentane-carboxamide], the IC50 under setting [1] lay in the range of 25 to 200 nM.
On to `CNC(=O)[C@@H]1CC[C@@H](Nc2ncc3c(Br)nn(-c4cc(Cl)cc(CO)c4)c3n2)C1` [(1R,3R)-3-[[3-bromo-1-[3-chloro-5-(hydroxy-methyl)phenyl]pyrazolo[3,4-d]pyrimidin-6-yl]amino]-N-methyl-cyclopentanecarboxamide], for which the IC50 under setting [1] is 25 to 200 nM.
Consider `CN(C)CCNC(=O)[C@@H]1CC[C@@H](Nc2ncc3c(Br)nn(-c4ccc5ncccc5c4)c3n2)C1` [(1R,3R)-3-((3-bromo-1-(quinolin-6-yl)-1H-pyrazolo[3,4-d]pyrimidin-6-yl)amino)-N-(2-(dimethylamino)ethyl)cyclopentane-1-carboxamide], for which the IC50 under setting [1] was 25 to 200 nM.
Consider `C[C@]1(C(=O)O)C[C@H](Nc2ncc3c(Br)nn(-c4ccc5ncccc5c4)c3n2)C1`, for which, under setting [1], the IC50 was 200 to 500 nM.
Take `CC(=O)OCC(=O)N1CCN(C(=O)[C@@H]2CC[C@@H](Nc3ncc4c(Br)nn(-c5cc(C#N)c6ncccc6c5)c4n3)C2)CC1` [2-(4-((1R,3R)-3-((3-bromo-1-(8-cyanoquinolin-6-yl)-1H-pyrazolo[3,4-d]pyrimidin-6-yl)amino)cyclopentane-1-carbonyl)piperazin-1-yl)-2-oxoethyl acetate]: the IC50 under setting [1] was less than 25 nM.
On the same count and under the same terms, under `CNC(=O)[C@]1(C)CC[C@@H](Nc2ncc3c(Br)nn(-c4cc(F)cc([C@H](C)N)c4)c3n2)C1` stands 25 to 200 nM; under `Cc1nnc(-c2ccc(-n3nc(Br)c4cnc(N[C@@H]5CC[C@](C)(O)C5)nc43)cc2CCC#N)s1` [3-[5-[3-bromo-6-[[(1R,3S)-3-hydroxy-3-methyl-cyclopentyl]amino]pyrazolo [3,4-d]pyrimidin-1-yl]-2-(5-methyl-1,3,4-thiadiazol-2-yl)phenyl]propanenitrile], 25 to 200 nM.
Consider `CNC(=O)[C@]1(C)CC[C@@H](Nc2ncc3c(Br)nn(-c4ccc(-c5ncco5)c(OCC5CNC5)c4)c3n2)C1` [(1R,3R)-3-[[1-[3-(azetidin-3-ylmethoxy)-4-oxazol-2-yl-phenyl]-3-bromo-pyrazolo [3,4-d]pyrimidin-6-yl]amino]-N,1-dimethyl-cyclopentanecarboxamide], for which the IC50 under setting [1] is 25 to 200 nM.
For `CNC(=O)[C@@H]1CC[C@@H](Nc2ncc3c(Br)nn(-c4cc(F)c(-c5cccnc5)c(C#N)c4)c3n2)C1` [(1R,3R)-3-[[3-bromo-1-[3-cyano-5-fluoro-4-(3-pyridyl)phenyl]pyrazolo[3,4-d]pyrimidin-6-yl]amino]-N-methyl-cyclopentane-carboxamide], under setting [1], the IC50 was 25 to 200 nM.
Consider `CN(C)C(=O)[C@@H]1CC[C@@H](Nc2ncc3c(Br)nn(-c4cc(F)c5ncccc5c4)c3n2)C1` [(1R,3R)-3-((3-bromo-1-(8-fluoroquinolin-6-yl)-1H-pyrazolo[3,4-d]pyrimidin-6-yl)amino)-N,N-dimethylcyclopentane-1-carboxamide], for which the IC50 under setting [1] fell in the range of 25 to 200 nM.
For `CNC(=O)[C@]1(C)CC[C@@H](Nc2ncc3c(Br)nn(-c4ccc(-c5cnn(C)c5)cc4)c3n2)C1` [(1R,3R)-3-[[3-bromo-1-[4-(1-methyl-pyrazol-4-yl)phenyl]pyrazolo[3,4-d]pyrimidin-6-yl]amino]-N,1-dimethyl-cyclopentanecarboxamide], the IC50 under setting [1] was in the range of 25 to 200 nM.
As for `CNC(=O)[C@]1(C)CC[C@@H](Nc2ncc3c(Br)nn(-c4cc(NC(=O)CCCN)c5ncccc5c4)c3n2)C1` [(1R,3R)-3-[[1-[8-(4-aminobutanoylamino)-6-quinolyl]-3-bromo-pyrazolo[3,4-d]pyrimidin-6-yl]amino]-N,1-dimethyl-cyclopentanecarboxamide], under setting [1], the IC50 fell in the range of 25 to 200 nM.

The values are drawn from patent US11046699B2, “Pyrazolo-pyrimidin-amino-cycloalkyl compounds and their therapeutic uses” (RAPT THERAPEUTICS, INC., priority 2018, dated 2021).
